Reference: US10774051B2, “6-membered heterocyclic derivatives and pharmaceutical composition comprising the same” (Shionogi & Co., Ltd., priority 2015, dated 2020)

Each compound was assayed against human P2X7 receptor (Homo sapiens, UniProt Q99572, R270H/Y155H) (assay: Evaluation of human P2X7 receptor inhibitory activity (Yo-Pro uptake, BzATP stimulation, FLIPR TETRA)). Details: 1321N1 cells stably expressing human P2X7 receptor; BzATP stimulation, Yo-Pro uptake; read-out: IC50 (antagonistic activity for the human P2X7 receptor).
Type: cell-based
Outline: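 Yo-Pro dye uptake triggered by BzATP was monitored by FLIPR in human P2X7-transfected 1321N1 cells (SNP variant) in HEPES-buffered HBSS, pH 7.4-7.5. Compound was dispensed 8 min post-stimulation, then signal read for 20 min; IC50 derived logistically from inhibition of the fluorescence range.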

SMILES	IC50
COc1cn(Cc2cc(F)c(F)cc2F)c(Nc2cccc(Cl)c2C)nc1=O [Compound I-0347]	20 nM
COc1cn(Cc2ccc(F)c(Cl)c2)c(Nc2cc(C)c(C)cc2C)nc1=O [Compound I-0358]	160 nM
Cc1cc2c(cc1Nc1nc(=O)c(F)cn1Cc1ccccc1)OCCO2 [Compound I-0366]	35 nM
Cc1cc2c(cc1Nc1nc(=O)c(F)cn1Cc1ccc(F)cc1)OCCO2 [Compound I-0367]	13 nM
Cc1cc2c(cc1Nc1nc(=O)c(Cl)cn1Cc1ccccc1)OCCO2 [Compound I-0370]	47 nM
COc1cn(Cc2ccccc2)c(Nc2ccccc2SC)nc1=O [Compound I-0382]	350 nM
CCOc1cc(C)c(Nc2nc(=O)c(OC)cn2Cc2cc(F)cc(Cl)c2)cc1C [Compound I-0384]	10 nM
COc1cn(Cc2ccc(F)c(Cl)c2)c(Nc2cccc3[nH]c(=O)ccc23)nc1=O [Compound I-0397]	67 nM

Same assay, conditions: 1321N1 cells stably expressing human P2X7 receptor; BzATP stimulation, Yo-Pro uptake; read-out: IC50 (antagonistic activity for the human P2X7 receptor), class symbol

SMILES	IC50
Cc1c(Cl)cccc1Nc1nc(=O)c(CC(=O)NC2CCOCC2)cn1Cc1ccccc1 [Compound I-0338]	100 to 500 nM
Cc1c(Cl)cccc1Nc1nc(=O)c(CC(=O)N2CCOCC2)cn1Cc1ccccc1 [Compound I-0339]	100 to 500 nM
COCCNC(=O)Cc1cn(Cc2ccccc2)c(Nc2cccc(Cl)c2C)nc1=O [Compound I-0340]	100 to 500 nM
Cc1c(Cl)cccc1Nc1nc(=O)c(CC(=O)NCc2ccccc2)cn1Cc1ccccc1 [Compound I-0341]	100 to 500 nM
Cc1c(Cl)cccc1Nc1nc(=O)c(CC(=O)NC2COC2)cn1Cc1ccccc1 [Compound I-0342]	100 to 500 nM
Cc1c(Cl)cccc1Nc1nc(=O)c(CC(=O)NCC#N)cn1Cc1ccccc1 [Compound I-0344]	100 to 500 nM
COc1cc(C)c(Nc2nc(=O)c(Cl)cn2Cc2ccc(F)c(Cl)c2)cc1OC [Compound I-0345]	< 10 nM
COc1cc(C)c(Nc2nc(=O)c(Cl)cn2Cc2cccc(Cl)c2)cc1OC [Compound I-0346]	< 10 nM
COc1cc(C)c(Nc2nc(=O)c(F)cn2Cc2cccc(Cl)c2)cc1C [Compound I-0348]	< 10 nM
COc1cc(C)c(Nc2nc(=O)c(F)cn2Cc2ccc(F)c(Cl)c2)cc1C [Compound I-0349]	< 10 nM
CCc1cc(OC)c(OC)cc1Nc1nc(=O)c(F)cn1Cc1cccc(Cl)c1 [Compound I-0350]	< 10 nM
CCc1cc(OC)c(OC)cc1Nc1nc(=O)c(Cl)cn1Cc1ccccc1 [Compound I-0351]	< 10 nM
COCc1cccc(Nc2nc(=O)c(OC)cn2Cc2ccccc2)c1C [Compound I-0352]	100 to 500 nM
COCc1cccc(Nc2nc(=O)c(OC)cn2Cc2ccc(F)c(Cl)c2)c1C [Compound I-0353]	10 to 100 nM
COc1cn(Cc2cc(F)cc(F)c2)c(Nc2cc(C)c(OC(F)F)cc2C)nc1=O [Compound I-0355]	< 10 nM
COCc1ccccc1Nc1nc(=O)c(OC)cn1Cc1ccc(F)c(Cl)c1 [Compound I-0356]	100 to 500 nM
COc1cn(Cc2ccccc2)c(Nc2cc(C)c(C)cc2C)nc1=O [Compound I-0357]	500 to 1000 nM
COc1cn(Cc2ccccc2)c(Nc2cc(F)c(F)cc2C)nc1=O [Compound I-0359]	500 to 1000 nM
COc1cn(Cc2ccc(F)c(Cl)c2)c(Nc2cc(F)c(F)cc2C)nc1=O [Compound I-0360]	10 to 100 nM
CCc1c(Nc2nc(=O)c(OC)cn2Cc2ccccc2)cc(OC)cc1OC [Compound I-0361]	< 10 nM
CCc1c(Nc2nc(=O)c(OC)cn2Cc2cccc(Cl)c2)cc(OC)cc1OC [Compound I-0362]	< 10 nM
CCc1c(Nc2nc(=O)c(OC)cn2Cc2ccc(F)c(Cl)c2)cc(OC)cc1OC [Compound I-0363]	< 10 nM
COc1cn(Cc2ccccc2)c(Nc2ccc(OC(F)F)cc2C)nc1=O [Compound I-0364]	100 to 500 nM
Cc1cc2c(cc1Nc1nc(=O)c(F)cn1Cc1cccc(Cl)c1)OCCO2 [Compound I-0368]	10 to 100 nM
Cc1cc2c(cc1Nc1nc(=O)c(F)cn1Cc1ccc(F)c(Cl)c1)OCCO2 [Compound I-0369]	< 10 nM
COc1cc(C)cc(Nc2nc(=O)c(OC)cn2Cc2cc(F)cc(F)c2)c1C [Compound I-0371]	< 10 nM

SMILES	IC50
COc1cn(Cc2cccc(Cl)c2)c(Nc2ccc(C)cc2C)nc1=O [Compound I-0374]	10 to 100 nM
COc1cn(Cc2ccc(F)cc2)c(Nc2ccc(C)cc2C)nc1=O [Compound I-0375]	10 to 100 nM
COc1cn(Cc2ccc(F)c(Cl)c2)c(Nc2ccc(C)cc2C)nc1=O [Compound I-0376]	< 10 nM
COc1cn(Cc2cc(F)cc(F)c2)c(Nc2cc(C)c(C)cc2C)nc1=O [Compound I-0377]	< 10 nM
COc1cn(Cc2cc(F)cc(F)c2)c(Nc2cc(C)c(Cl)cc2C)nc1=O [Compound I-0378]	< 10 nM
COc1cn(Cc2ccc(F)c(Cl)c2)c(Nc2cc(-c3nnco3)ccc2C)nc1=O [Compound I-0379]	< 10 nM
Cc1ccc(-c2nnco2)cc1Nc1nc(=O)c(F)cn1Cc1ccc(F)c(F)c1 [Compound I-0380]	10 to 100 nM
COc1cn(Cc2cc(F)cc(Cl)c2)c(Nc2cc(C)c(C)cc2C)nc1=O [Compound I-0381]	< 10 nM
CCOc1cc(C)c(Nc2nc(=O)c(OC)cn2Cc2cc(F)cc(F)c2)cc1C [Compound I-0383]	< 10 nM
COc1cn(Cc2cc(F)cc(Cl)c2)c(Nc2cc(C)c(Cl)cc2C)nc1=O [Compound I-0385]	10 to 100 nM
COc1cn(Cc2ccccc2)c(Nc2cc(Br)ccc2C)nc1=O [Compound I-0386]	10 to 100 nM
CCc1ccc(Cl)cc1Nc1nc(=O)c(OC)cn1Cc1cccc(Cl)c1 [Compound I-0387]	10 to 100 nM
CCc1ccc(Cl)cc1Nc1nc(=O)c(OC)cn1Cc1ccc(F)cc1 [Compound I-0388]	10 to 100 nM
CCc1ccc(Cl)cc1Nc1nc(=O)c(OC)cn1Cc1ccc(F)c(Cl)c1 [Compound I-0389]	< 10 nM
COc1cn(Cc2ccccc2)c(Nc2cc(C)cc3[nH]ccc23)nc1=O [Compound I-0390]	10 to 100 nM
COc1cn(Cc2ccccc2)c(Nc2cccc3c(=O)[nH]ccc23)nc1=O [Compound I-0392]	10 to 100 nM
COc1cn(Cc2ccccc2)c(Nc2cc(N3CCCC3=O)ccc2C)nc1=O [Compound I-0393]	10 to 100 nM
COc1ccc(Nc2nc(=O)c(OC)cn2Cc2ccc(F)c(Cl)c2)c(C)c1C [Compound I-0394]	< 10 nM
COc1cc(C)cc(Nc2nc(=O)c(OC)cn2Cc2cc(F)cc(Cl)c2)c1C [Compound I-0395]	< 10 nM
COc1cn(Cc2ccc(F)c(Cl)c2)c(Nc2cc(C)cc3[nH]ccc23)nc1=O [Compound I-0396]	< 10 nM
COc1cn(Cc2ccc(F)c(Cl)c2)c(Nc2cccc3c(=O)[nH]ccc23)nc1=O [Compound I-0398]	10 to 100 nM
COc1cn(Cc2ccc(F)c(Cl)c2)c(Nc2cc(N3CCCC3=O)ccc2C)nc1=O [Compound I-0399]	< 10 nM
CCc1cc(F)ccc1Nc1nc(=O)c(OC)cn1Cc1ccccc1 [Compound I-0400]	100 to 500 nM
COc1cn(Cc2ccc(F)cc2)c(Nc2cccc(N(C)C)c2C)nc1=O [Compound I-0401]	10 to 100 nM
COc1cn(Cc2ccc(F)c(Cl)c2)c(Nc2cccc(N(C)C)c2C)nc1=O [Compound I-0402]	< 10 nM
COc1cn(Cc2cc(F)cc(Cl)c2)c(Nc2cccc(C)c2C)nc1=O [Compound I-0403]	10 to 100 nM
